Tests used:
rats = test: Pharmacological test for diuretic properties (urine volume); assay type: in vivo; settings: 50 mg/kg gastric gavage, 25 ml/kg saline s.c., urine collected 4 hours, ml/kg of body weight
Experimental: 2. Pharmacological tests for diuretic properties Lots of 3 rats weighting 250-300 g have been constituted at random, each of them being submitted to the same treatment. The compound to be tested was administered by .[.gastric gavage at a dose of 50 ml/kg as a solution or a.]. .Iadd.gastric gavage at a dose of 50 mg/kg as a solution or a .[…].suspension in water containing 0.45% of methylcellulose (which is an inert mucilaginous substance). Control animals received only distilled water as a placebo. At the same time, all the animals received 25 ml/kg of physiological saline by subcutaneous injection. The rats were then placed in metabolic cages, each cage containing 3 animals receiving the same treatment. The urines have been collected during 4 hours. […] The diuresis is expressed in ml/kg of body weight.

paw of rats = test: Pharmacological test for anti-inflammatory properties (carrageenan rat paw swelling); assay type: in vivo; settings: oral 1 hour before carrageenan (0.05 ml of 1%), swelling 4 hours after injection by plethysmography, dose not given
Experimental: 1. Pharmacological test for anti-inflammatory properties.
The compounds to be tested are given as freshly prepared solutions or suspensions by oral route 1 hour before injecting the paw of rats with carrageenan which is a known inflammatory agent.
The inflammatory agent (carrageenan) either in solution or suspension is then injected into the plantar tissue of the right hind paw of each rat, the left paw remaining untreated and serving as control. Each animal receives, for example, 0.05 ml of an aqueous solution containing 1% by weight of carrageenan and 0.9% of sodium chloride.
4 hours after the injection of the inflammatory agent, the importance of swelling is determined by plethysmography and is expressed as a percent of the volume of the control paw.
The anti-inflammatory effect expressed as a percentage of inhibition is obtained by comparison between rats treated with the anti-inflammatory compound and a control group of rats.

Question: How did the Diuresis (rats) turn out when `O=C(NC1CCCCC1)NS(=O)(=O)c1cnccc1Nc1cccc(C(F)(F)F)c1` [JDL 364, 3-cyclohexylcarbamylsulfonamido-4-(3'-trifluoromethyl)-phenylaminopyridine] was run?
Answer: 37.7 mL/kg

Question: What about the “% inhibition of acute oedema” value (paw of rats) of the same molecule?
Answer: 58.4%

Question: With `NS(=O)(=O)c1cnccc1NCc1ccco1` [JDL 181, 3-sulfonamido-4-methylfurylamino-pyridine] as the molecule, how does the Diuresis (rats) read?
Answer: 14.8 mL/kg

Question: And the “% inhibition of acute oedema” value (paw of rats)?
Answer: 21.6%

Question: How did the Diuresis (rats) turn out when `O=C(NC1CCCCC1)NS(=O)(=O)c1cnccc1Nc1ccccc1Cl` [JDL 428, 3-cyclohexylcarbamylsulfonamido-4-(2'-chloro)-phenylamionpyridine] was run?
Answer: 15.6 mL/kg

Question: And the “% inhibition of acute oedema” value (paw of rats)?
Answer: 17.6%

Question: `CC(C)NC(=O)NS(=O)(=O)c1cnccc1Nc1ccc(Cl)c(Cl)c1` [JDL 476, 3-isopropylcarbamylsulfonamido-4-(3',4'-dichloro)-phenylaminopyridine] was tested. Which Diuresis (rats) did it give?
Answer: 42.1 mL/kg

Question: What about the “% inhibition of acute oedema” value (paw of rats) of the same molecule?
Answer: 92.0%

Question: What does the source list for `CC(C)NC(=O)NS(=O)(=O)c1cnccc1Nc1cccc(Br)c1` [JDL 468, 3-isopropylcarbamylsulfonamido-4-(3'-bromo)-phenylaminopyridine]?
Answer: Diuresis (rats): 77.2 mL/kg; % inhibition of acute oedema (paw of rats): 72.0%

Question: For `CC(C)NC(=O)NS(=O)(=O)c1cnccc1NCc1ccco1` [JDL 472, 3-isopropylcarbamylsulfonamido-4-methylfurylaminopyridine], which Diuresis (rats) is on record?
Answer: 69.6 mL/kg

Question: And the “% inhibition of acute oedema” value (paw of rats)?
Answer: 54.4%

Question: What does the source list for `CNC(=O)NS(=O)(=O)c1cnccc1Nc1ccc(Cl)cc1` [JDL 415, 3-methylcarbamylsulfonamido-4-(4'-chloro)-phenylaminopyridine]?
Answer: Diuresis (rats): 47.0 mL/kg; % inhibition of acute oedema (paw of rats): 75.2%

Question: Which results are given for `CNC(=O)NS(=O)(=O)c1cnccc1Nc1cccc(C)c1` [JDL 494, 3-methylcarbamylsulfonamido-4-(3'-methyl)-phenylaminopyridine]?
Answer: Diuresis (rats): 75.9 mL/kg; % inhibition of acute oedema (paw of rats): 85.6%

Question: Which results are given for `CNC(=O)NS(=O)(=O)c1cnccc1Nc1cccc(F)c1` [JDL 495, 3-methylcarbamylsulfonamido-4-(3'-fluoro)-phenylaminopyridine]?
Answer: Diuresis (rats): 76.3 mL/kg; % inhibition of acute oedema (paw of rats): 66.2%

Question: Which Diuresis (rats) does the source give for `CCCNC(=O)NS(=O)(=O)c1cnccc1Nc1cccc(Cl)c1` [JDL 375, 3-propylcarbamylsulfonamido-4-(3'-chloro)-phenylaminopyridine] here?
Answer: 80.5 mL/kg

Question: What about the “% inhibition of acute oedema” value (paw of rats) of the same molecule?
Answer: 46.4%

Question: With `CC(C)(C)NC(=O)NS(=O)(=O)c1cnccc1Sc1cccc(Cl)c1` [JDL 385, 3-tertiobutylcarbamylsulfonamido-4-(3'-chloro)-thiophenoxypyridine] as the molecule, how does the Diuresis (rats) read?
Answer: 17.6 mL/kg

Question: What about the “% inhibition of acute oedema” value (paw of rats) of the same molecule?
Answer: 46.6%

Question: Which results are given for `CCCCNC(=O)NS(=O)(=O)c1cnccc1Nc1ccc(Cl)c(C(F)(F)F)c1` [JDL 486, 3-butylcarbamylsulfonamido-4-(3'-trifluoromethyl-4'-chloro)-phenyl aminopyridine]?
Answer: Diuresis (rats): 3.6 mL/kg; % inhibition of acute oedema (paw of rats): 16.8%

Question: Which Diuresis (rats) does the source give for `CCN(CC)c1ccncc1S(=O)(=O)NC(=O)NC(C)C` [JDL 483, 3-isopropylcarbamylsulfonamido-4-diethylaminopyridine] here?
Answer: 12.4 mL/kg

Question: What about the “% inhibition of acute oedema” value (paw of rats) of the same molecule?
Answer: 0%

Question: Which results are given for `CCCNC(=O)NS(=O)(=O)c1cnccc1Oc1cccc(Cl)c1` [JDL 365, 3-propylcarbamylsulfonamido-4-(3'-chloro)-phenoxypyridine]?
Answer: Diuresis (rats): 8.7 mL/kg; % inhibition of acute oedema (paw of rats): 43.2%

Question: For `Cc1cncc(S(=O)(=O)NC(=O)NC(C)C)c1Nc1cccc(Cl)c1` [JDL 503, 3-isopropylcarbamylsulfonamido-4-(3'-chloro)-phenylamino-5-methylpyridine], which Diuresis (rats) is on record?
Answer: 48.9 mL/kg

Question: What about the “% inhibition of acute oedema” value (paw of rats) of the same molecule?
Answer: 71.2%

Question: For `CCNC(=O)NS(=O)(=O)c1cnccc1Nc1cccc(C)c1` [JDL 463, 3-ethylcarbamylsulfonamido-4-(3'-methyl)-phenylaminopyridine], which Diuresis (rats) is on record?
Answer: 76.1 mL/kg

Question: And the “% inhibition of acute oedema” value (paw of rats)?
Answer: 73.6%

Question: Which results are given for `CCCNC(=O)NS(=O)(=O)c1cnccc1N(C)c1ccccc1` [JDL 383, 3-pripylcarbamylsulfonamido-4-N-methyl-anilinopyridine]?
Answer: Diuresis (rats): 57.8 mL/kg; % inhibition of acute oedema (paw of rats): 55.2%

Question: For `CCCCNC(=O)NS(=O)(=O)c1cnccc1NCc1ccco1` [JDL 485, 3-butylcarbamylsufonamido-4-methyl-furylaminopyridine], which Diuresis (rats) is on record?
Answer: 51.3 mL/kg

Question: And the “% inhibition of acute oedema” value (paw of rats)?
Answer: 15.2%

Question: Which Diuresis (rats) does the source give for `CNC(=O)NS(=O)(=O)c1cnccc1Nc1ccccc1Cl` [JDL 402, 3-methylcarbamylsulfonamidio-4-(2'-chloro)-phenylaminopyridine] here?
Answer: 65.4 mL/kg

Question: What about the “% inhibition of acute oedema” value (paw of rats) of the same molecule?
Answer: 76.8%

Question: With `Cc1cccc(Nc2ccncc2S(=O)(=O)NC(=O)NC(C)C)c1` [JDL 464, 3-isopropylcarbamylsulfonamido-4-(3'-methyl)-phenylaminopyridine] as the molecule, how does the Diuresis (rats) read?
Answer: 81.6 mL/kg

Question: What about the “% inhibition of acute oedema” value (paw of rats) of the same molecule?
Answer: 76.8%

Question: For `CCCNC(=O)NS(=O)(=O)c1cnccc1Sc1cccc(Cl)c1` [JDL 384, 3-propylcarbamylsulfonamido-4-(3'-chloro)-thiophenoxypyridine], which Diuresis (rats) is on record?
Answer: 12.8 mL/kg

Question: What about the “% inhibition of acute oedema” value (paw of rats) of the same molecule?
Answer: 66.4%

Question: Which Diuresis (rats) does the source give for `CC(C)NC(=S)NS(=O)(=O)c1cnccc1Nc1cccc(Cl)c1` [JDL 479, 3-isopropylthiocarbamylsulfonamido-4-(3'-chloro)-phenylaminopyridine] here?
Answer: 44.3 mL/kg

Question: What about the “% inhibition of acute oedema” value (paw of rats) of the same molecule?
Answer: 45.6%

Question: With `O=C(Nc1ccccc1)NS(=O)(=O)c1cnccc1Nc1cccc(C(F)(F)F)c1` [JDL 368, 3-phenylcarbamylsulfonamido-4-(3'-trifluoromethyl)phenylaminopyridine] as the molecule, how does the Diuresis (rats) read?
Answer: 6.1 mL/kg

Question: What about the “% inhibition of acute oedema” value (paw of rats) of the same molecule?
Answer: 57.0%

Question: Which Diuresis (rats) does the source give for `CNC(=O)NS(=O)(=O)c1cnccc1Nc1cccc([N+](=O)[O-])c1` [JDL 504, 3-methylcarbamylsulfonamido-4-(3'-nitro)-phenylaminopyridine] here?
Answer: 17.2 mL/kg

Question: And the “% inhibition of acute oedema” value (paw of rats)?
Answer: 43.0%

Question: What does the source list for `CNC(=O)NS(=O)(=O)c1cnccc1Nc1cccc(Br)c1` [JDL 496, 3-methylcarbamylsulfonamido-4-(3'-bromo)-phenylaminopyridine]?
Answer: Diuresis (rats): 72.1 mL/kg; % inhibition of acute oedema (paw of rats): 70.4%

Question: What does the source list for `CCNC(=O)NS(=O)(=O)c1cnccc1Nc1cc(Cl)cc(Cl)c1` [JDL 473, 3-ethylcarbamylsulfonamido-4-(3',5'-dichloro)-phenylaminopyridine]?
Answer: Diuresis (rats): 24.0 mL/kg; % inhibition of acute oedema (paw of rats): 41.6%

Question: Which results are given for `CNC(=O)NS(=O)(=O)c1cnccc1Nc1cccc(C(F)(F)F)c1` [JDL 378, 3-methylcarbamylsulfonamido-4-(3'-trifluoromethyl)-phenylaminopyridine]?
Answer: Diuresis (rats): 84.0 mL/kg; % inhibition of acute oedema (paw of rats): 74.4%

Question: What does the source list for `CC(C)NC(=O)NS(=O)(=O)c1cnccc1Nc1ccccc1Cl` [JDL 421, 3-isopropylcarbamylsulfonamido-4-(2'-chloro)-phenylaminopyridine]?
Answer: Diuresis (rats): 72.0 mL/kg; % inhibition of acute oedema (paw of rats): 88.8%

Question: How did the Diuresis (rats) turn out when `CCNC(=S)NS(=O)(=O)c1cnccc1Nc1cccc(Cl)c1` [JDL 478, 3-ethylthiocarbamylsulfonamido-4-(3'-chloro)-phenylaminopyridine] was run?
Answer: 29.7 mL/kg

Question: And the “% inhibition of acute oedema” value (paw of rats)?
Answer: 29.6%

Question: How did the Diuresis (rats) turn out when `CCNC(=O)NS(=O)(=O)c1cnccc1Nc1ccccc1Cl` [JDL 403, 3-ethylcarbamylsulfonamido-4-(2'-chloro)-phenylaminopyridine] was run?
Answer: 74.9 mL/kg

Question: What about the “% inhibition of acute oedema” value (paw of rats) of the same molecule?
Answer: 76.8%

Question: What does the source list for `CCCNC(=O)NS(=O)(=O)c1cnccc1Nc1ccccc1Cl` [JDL 404, 3-propylcarbamylsulfonamido-4-(2'-chloro)-phenylaminopyridine]?
Answer: Diuresis (rats): 43.1 mL/kg; % inhibition of acute oedema (paw of rats): 76.8%

Question: What does the source list for `CC(C)(C)NC(=O)NS(=O)(=O)c1cnccc1Nc1cccc(C(F)(F)F)c1` [JDL 367, 3-tertbutylcarbamylsulfonamido-4-(3'-trifluoromethyl)-phenylaminopyridine]?
Answer: Diuresis (rats): 11.1 mL/kg; % inhibition of acute oedema (paw of rats): 80.0%

Question: Which Diuresis (rats) does the source give for `CNC(=O)NS(=O)(=O)c1cnccc1NCc1ccco1` [JDL 492, 3-methylcarbamylsulfonamido-4-methyl-furylaminopyridine] here?
Answer: 14.9 mL/kg

Question: And the “% inhibition of acute oedema” value (paw of rats)?
Answer: 88.8%

Question: `CCCNC(=O)NS(=O)(=O)c1cnccc1Nc1cccc(C(F)(F)F)c1` [JDL 355, 3-propylcarbamylsulfonamido-4-(3'-trifluoromethyl)phenylaminopyridine] was tested. Which Diuresis (rats) did it give?
Answer: 57.0 mL/kg

Question: And the “% inhibition of acute oedema” value (paw of rats)?
Answer: 48.8%

Question: How did the Diuresis (rats) turn out when `CNC(=O)NS(=O)(=O)c1cnccc1Nc1cccnc1` [JDL 506, 3-methylcarbamylsulfonamido-4-(3'-pyridylamino)-pyridine] was run?
Answer: 13.5 mL/kg

Question: Which Diuresis (rats) does the source give for `CC(C)NC(=O)NS(=O)(=O)c1cnccc1Nc1cc(Cl)cc(Cl)c1` [JDL 474, 3-isopropylcarbamylsulfonamido-4-(3',5'-dichloro)-phenylaminopyridine] here?
Answer: 33.3 mL/kg

— patent USRE30633E, “3-Lower alkylcarbamylsulfonamido-4-phenylaminopyridines, n-oxides, derivatives thereof and pharmaceutical compositions containing same” (A. Christiaens Societe Anonyme, priority 1974, dated 1981)
